Experimental data published in US20110306554A1, “PEPTIDE CAPABLE OF BINDING TO IMMUNOGLOBULIN” (priority 2009, published 2011).
Entries after “also recorded” stand apart in the source; their conditions may differ.

Legend:
[1] = test system: Monoclonal antibody cocktail-induced arthritis mice; experiment: Arthritis suppressing effects on arthritis-induced mice, Part 1; format: in vivo
Method: Monoclonal antibody cocktail-induced arthritis mice (BALE/c Cr Slc (SPF)) were used to examine arthritis suppressing effects of a peptide which is indicated as R5 in Example 2. Arthritis was caused by intravenous administration of 2 mg/mouse of an arthritis-inducing monoclonal antibody cocktail and three days later, intraperitoneal administration of 50 μg/mouse of Lipopolysaccharide (LPS). Peptide R5 was intraperitoneally administered at a dose of 10 mg/kg once or twice a day from the day following the LPS administration (day 4) up to day 14. Methotrexate, a positive control drug, was orally administered at a dose of 0.1 mg/kg once a day from day 4. Clinical scores of the extremities were measured on even days from day 0 up to day 14. Under anesthesia, blood was removed with heparin-containing physiological saline, and an ice-cooled, 4% solution of paraformaldehyde was continuously injected to perfusion-fix the whole body. After perfusion-fixation, the knee joints (obtained by cutting at the center of the femur and of the tibia and removing the skin and muscles) and hock joints (from the center of the tibia to the toe tips) of both hind limbs were excised and further fixed by immersion in a 4% solution of paraformaldehyde overnight (4° C.). After that, both knee joints and both hock joints were transferred into 50 mM PBS (4° C.), and then subjected to soft x-ray radiography of the hock joints in two directions (from the internal side and the upper side).
The required amount was calculated for the peptide, based on the animal weight. A peptide solution was prepared to make a concentration of 1 mg/ml in a 0.5% methyl cellulose solution, and the prepared peptide solution was cold stored.
A solution of methotrexate was prepared by weighing 1 mg of methotrexate into an agate mortar, grinding it with a pestle, and then gradually adding a 0.5% methyl cellulose solution to form a suspension and make a concentration of 0.01 mg/ml. […]
(§1) Results of examinations were expressed by mean value±standard error and analyzed using EXSAS (Version 7.1.6, Arm Systex Co., Ltd.). […]

[2] = test system: Monoclonal antibody cocktail-induced arthritis mice; experiment: Arthritis suppressing effects on arthritis-induced mice, Part 2; format: in vivo; conditions: 10 mg/kg intraperitoneal twice a day, 14 consecutive days from day 0
Method: Monoclonal antibody cocktail-induced arthritis mice were used to examine arthritis suppressing effects of peptides which are indicated as R1, R2, and R5 in Example 2. Arthritis was caused by intravenous administration of 2 mg/mouse of an arthritis-inducing monoclonal antibody cocktail and three days later, intraperitoneal administration of 50 μg/mouse of LPS. The peptides were administered at a dose of 10 mg/kg twice a day for a period of 14 consecutive days from the day of administration of the arthritis-inducing monoclonal antibody cocktail (day 0), and arthritis suppressing effect was examined in terms of clinical score. Experiments were carried out in a similar way to those in the section (1) in Example 3.
The required amount was calculated for each peptide, based on the animal weight. Each peptide solution was prepared to make a concentration of 1 mg/ml in a 0.5% methyl cellulose solution, and the prepared peptide solution was cold stored.
Measurement of body weight of animals was made on days 0, 3, 6, 9, 12, and 14 during the study period, with day 0 being the day of administration of the arthritis-inducing monoclonal antibody cocktail. Observation of general condition was made on a daily basis.
Mice were weighed on the day prior to start of administration and randomly assigned to groups using a grouping software, so that the average body weight values of the groups were approximately equal. To twenty 7-week-old mice, the arthritis-inducing monoclonal antibody cocktail was intravenously administered at a dose of 2 mg/mouse on day 0, and LPS was intraperitoneally administered at a dose of 50 μg/mouse on day 3.
Each peptide solution was given via intraperitoneal administration twice a day, morning and afternoon, from day 0. As a control, a 0.5% solution of methyl cellulose was intraperitoneally administered twice a day from day 0. A needle (26G; Terumo) and a syringe (1.0-ml capacity; Terumo) were used for administration. […]
as §1

Sequence: STGKFTCKVPGLYYF (Immunoglobulin binding peptide) [R5]
- difference in effectiveness between once-a-day and twice-a-day administration ([1]; 10 mg/kg intraperitoneal): no significant difference
- degree of arthritis suppression compared with methotrexate ([1]; 10 mg/kg intraperitoneal vs methotrexate 0.1 mg/kg orally once a day): higher degree of arthritis suppression than that of methotrexate
- arthritis suppressing effect (clinical score) ([1]; 10 mg/kg intraperitoneal, once or twice a day, day 4 to day 14): exhibited arthritis suppressing effects; also recorded: arthritis was suppressed
- arthritis suppressing effect (clinical score) [2]: Arthritis suppressing effects were observed; also recorded: arthritis was suppressed
